From article PMC4141478 (Nature communications, 2014)

Target: T1, Full length EhIP6KA (Entamoeba histolytica, UniProt C4M387)
T1 sequence (C4M387 1-270): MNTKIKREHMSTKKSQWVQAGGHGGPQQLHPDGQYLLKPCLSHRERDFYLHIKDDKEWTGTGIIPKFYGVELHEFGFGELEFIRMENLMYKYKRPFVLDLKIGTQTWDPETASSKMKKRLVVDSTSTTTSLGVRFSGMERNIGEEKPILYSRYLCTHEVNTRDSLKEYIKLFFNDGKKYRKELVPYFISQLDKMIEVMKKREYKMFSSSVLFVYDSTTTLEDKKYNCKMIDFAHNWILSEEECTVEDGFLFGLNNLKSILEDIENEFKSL
Assay: NMR of reaction product
Assay type: biochemical
Settings: 3 mM ATP, 2 mM MgCl2, pH 7.0, 37 then 25 C; product 5-InsP7

`O=P(O)(O)O[C@H]1[C@H](OP(=O)(O)O)[C@@H](OP(=O)(O)O)[C@H](OP(=O)(O)O)[C@@H](OP(=O)(O)O)[C@H]1OP(=O)(O)O` [InsP6] was tested, and the “NMR of reaction product” value was “EhIP6KA, like mammalian IP6Ks, converts InsP6 to 5-InsP7”.
